From US20250208149A1, “WEE1 COMPOUND FOR TREATING UTERINE SEROUS CARCINOMA” (Recurium IP Holdings, LLC, priority 2022, published 2025) come the findings set out here.

What all share (format): cell-based
Assay [1] concerns HEC1B endometrial cancer cells. As to the kind of experiment: Percent inhibition of cell growth, ZN-c3, LB-100 or ZN-c3+LB-100 after siCTRL or siPPP2R1A (cell titer glow). Conditions: Homo sapiens, HEC-1B, 72 h, read-out: percent inhibition of cell growth. On the procedure:
FIG. 21 depicts the percent inhibition of cell growth in HEC1B endometrial cancer cells after treatment with ZN-c3 alone, the PP2A catalytic inhibitor LB-100 alone, or the combination of ZN-c3+LB-100 after siRNA mediated knockdown of PPP2R1A. […] Percent inhibition is calculated using cell titer glow analysis.
(§1) Following observations that both knockdown and knockout of PPP2R1A could sensitize cancer cells to Zn-C3, the effects of pharmacological inhibition of PPP2R1A with the catalytic inhibitor LB-100 were evaluated. Various cancer cell lines were treated with ZN-c3 alone, the PP2A catalytic inhibitor LB-100 alone, or the combination of ZN-c3+LB-100. As in Example 1 and Example 2, the treatment period was 72 hours and percent inhibition was calculated using cell titer glow analysis.
The endometrial cancer cell line HEC1B was also assessed for sensitivity to ZN-c3 alone, LB-100 alone, or the combination of ZN-c3+LB-100 following treatment with siCTRL or siPPP2R1A (FIG. 21).

Assay [2] concerns OV17R ovarian cancer cells. The assay is described as follows: Percent inhibition of cell growth, ZN-c3, LB-100 or ZN-c3+LB-100 (cell titer glow). Conditions: 72 h, read-out: percent inhibition of cell growth. As to the method: FIG. 19 depicts the percent inhibition of cell growth in OV17R ovarian cancer cells after treatment with ZN-c3 alone, the PP2A catalytic inhibitor LB-100 alone, or the combination of ZN-c3+LB-100. OV17R has the PPP2R1A missense mutation S256F. Percent inhibition is calculated using cell titer glow analysis.
as §1
The ovarian cancer cell line OV17R was assessed for sensitivity to ZN-c3 alone, LB-100 alone, or the combination of ZN-c3+LB-100 (FIG. 19).

Assay [3] concerns HEC-59 endometrial cancer cells. The assay is described as follows: Percent inhibition of cell growth, ZN-c3, LB-100 or ZN-c3+LB-100 after siCTRL or siPPP2R1A (cell titer glow). Conditions: 72 hours, ZN-c3 300 nM, LB-100 1 μM. On the procedure:
FIG. 20 depicts the percent inhibition of cell growth in HEC-59 endometrial cancer cells after treatment with ZN-c3 alone, the PP2A catalytic inhibitor LB-100 alone, or the combination of ZN-c3+LB-100 after siRNA mediated knockdown of PPP2R1A. […] Percent inhibition is calculated using cell titer glow analysis.
(§2) Various cancer cell lines were treated with ZN-c3 alone, the PP2A catalytic inhibitor LB-100 alone, or the combination of ZN-c3+LB-100. As in Example 1 and Example 2, the treatment period was 72 hours and percent inhibition was calculated using cell titer glow analysis.
The endometrial cancer cell line HEC-59 was assessed for sensitivity to ZN-c3 alone, LB-100 alone, or the combination of ZN-c3+LB-100 following treatment with siCTRL or siPPP2R1A (FIG. 20).

The test system is the same in assay [4]. As to the kind of experiment: Percent inhibition of cell growth, ZN-c3, LB-100 or ZN-c3+LB-100 (cell titer glow). Conditions: HEC-59 (PPP2R1A wild-type), 72 hours; ZN-c3 400 nM, LB-100 1 μM. On the procedure: FIG. 18 depicts the percent inhibition of cell growth in HEC-59 endometrial cancer cells after treatment with ZN-c3 alone, the PP2A catalytic inhibitor LB-100 alone, or the combination of ZN-c3+LB-100. HEC-59 cell line is PPP2R1A wild-type. […] Percent inhibition is calculated using cell titer glow analysis.
as §2
The endometrial cancer cell line HEC-59 was assessed for sensitivity to ZN-c3 alone, LB-100 alone, or the combination of ZN-c3+LB-100 (FIG. 18).

For `CN1CCN(C(=O)C2C(C(=O)O)[C@H]3CC[C@@H]2O3)CC1` (some centres unmarked) [LB-100, reference compound], the inhibition at 1 µM was 25% in assay [1] and approximately 12% in assay [2]. Also, the “percent inhibition of cell growth” value is reported as “approximately half of that value” in assay [3] (HEC-59, siCTRL) and “approximately half of that value” in assay [4]. The “percent inhibition in siPPP2R1A treated cells compared to siCTRL treated cells” value in assay [3] (HEC-59, siPPP2R1A) is “only slightly enhanced”.
